Source: US4062956A, “Substituted 2-(2-hydroxyethyl)tetrahydro-1,4 oxazines and quaternary salts thereof useful for treating spasmodic syndromes” (Centre Europeen de Recherches Mauvernay, priority 1975, dated 1977)

What was measured:
[1] = target: T1, smooth muscle spasms induced by histamine (ileum of the guinea pig) (Cavia porcellus, UniProt P31389); assay: In vitro antagonism of histamine-induced smooth muscle spasm, isolated ileum of the guinea pig (technique of MAGNUS); details: agonist histamine, oxygen Tyrode solution, 30° C; for Kb: read-out: pA2 (converted)
T1 construct: The isolated organs were kept alive in a thermostatic oxygen Tyrode solution at 30° C; from tissue; host or cells: isolated guinea pig ileum
Protocol: The pharmacological studies of the compounds according to the invention were directed essentially to the elucidation of the antispasmodic potentialities of the cations, particularly at the level of smooth muscle spasms induced by acetylcholine, histamine and Ba^++ ions. These investigations were carried out in vitro according to the technique of MAGNUS (Pflug. Arch. Ges. Physiol. 1904, 102, 349, and 1904, 103, 515 and 525) by using as biological indicators the jejunum of the rat for the first agonist and the ileum of the guinea pig for the two other agonists. The isolated organs were kept alive in a thermostatic oxygen Tyrode solution at 30° C and their contractions were recorded.
The response curve line as a function of the dose enabled the calculation of the affinity parameters (pA2 and pD'2) of the compounds according to the invention for the different types of receptor (VAN ROSSUM J.M. - Arch. Int. Pharmacodyn. 1963, 143, 299 -330).

[2] = system: smooth muscle spasms induced by Ba^++ ions (ileum of the guinea pig); assay: In vitro antagonism of Ba^++-induced smooth muscle spasm, isolated ileum of the guinea pig (technique of MAGNUS); details: agonist Ba^++, oxygen Tyrode solution, 30° C
Protocol: (§1) The pharmacological studies of the compounds according to the invention were directed essentially to the elucidation of the antispasmodic potentialities of the cations, particularly at the level of smooth muscle spasms induced by acetylcholine, histamine and Ba^++ ions. […] The isolated organs were kept alive in a thermostatic oxygen Tyrode solution at 30° C and their contractions were recorded.

[3] = target: T2, smooth muscle spasms induced by acetylcholine (jejunum of the rat) (Rattus norvegicus, UniProt P08483); assay: In vitro antagonism of acetylcholine-induced smooth muscle spasm, isolated jejunum of the rat (technique of MAGNUS); details: agonist acetylcholine, oxygen Tyrode solution, 30° C; for Kb: read-out: pA2 (converted)
T2 construct: The isolated organs were kept alive in a thermostatic oxygen Tyrode solution at 30° C; from tissue; host or cells: isolated rat jejunum
Protocol: as §1

[4] = system: smooth muscle spasms induced by acetylcholine, histamine and Ba^++ ions; assay: Type of antagonist exerted, overall from the isolated organ tests (acetylcholine, histamine, Ba^++); set-up: species or system rat; guinea pig; details: for TYPE OF ANTAGONIST EXERTED: Table I, over the three agonists; for mechanism and intensity of action compared with Tiemonium and papaverine: interpretation of Table I by principles of molecular pharmacology (ARIENS)
Protocol: as §1

[5] = system: smooth muscle spasms induced by acetylcholine (jejunum of the rat); assay: In vitro antagonism of acetylcholine-induced smooth muscle spasm, isolated jejunum of the rat (technique of MAGNUS); details: agonist acetylcholine, oxygen Tyrode solution, 30° C
Protocol: as §1

T2 sequence (P08483 whole entry): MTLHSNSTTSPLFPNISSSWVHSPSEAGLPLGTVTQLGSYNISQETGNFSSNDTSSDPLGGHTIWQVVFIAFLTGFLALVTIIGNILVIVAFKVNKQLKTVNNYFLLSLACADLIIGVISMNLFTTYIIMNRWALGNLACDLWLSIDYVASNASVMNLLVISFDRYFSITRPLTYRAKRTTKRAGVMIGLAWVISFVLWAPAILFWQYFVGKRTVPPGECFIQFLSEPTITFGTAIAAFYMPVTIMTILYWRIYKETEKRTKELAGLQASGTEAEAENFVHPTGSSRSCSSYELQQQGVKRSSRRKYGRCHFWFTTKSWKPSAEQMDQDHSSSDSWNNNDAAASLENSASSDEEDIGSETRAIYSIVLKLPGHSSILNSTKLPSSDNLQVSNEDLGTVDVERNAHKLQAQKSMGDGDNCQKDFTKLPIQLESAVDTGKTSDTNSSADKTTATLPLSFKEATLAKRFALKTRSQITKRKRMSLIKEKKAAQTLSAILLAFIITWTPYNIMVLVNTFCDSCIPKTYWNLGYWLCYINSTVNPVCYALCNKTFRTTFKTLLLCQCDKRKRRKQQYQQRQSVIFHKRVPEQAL
T1 sequence (P31389 whole entry): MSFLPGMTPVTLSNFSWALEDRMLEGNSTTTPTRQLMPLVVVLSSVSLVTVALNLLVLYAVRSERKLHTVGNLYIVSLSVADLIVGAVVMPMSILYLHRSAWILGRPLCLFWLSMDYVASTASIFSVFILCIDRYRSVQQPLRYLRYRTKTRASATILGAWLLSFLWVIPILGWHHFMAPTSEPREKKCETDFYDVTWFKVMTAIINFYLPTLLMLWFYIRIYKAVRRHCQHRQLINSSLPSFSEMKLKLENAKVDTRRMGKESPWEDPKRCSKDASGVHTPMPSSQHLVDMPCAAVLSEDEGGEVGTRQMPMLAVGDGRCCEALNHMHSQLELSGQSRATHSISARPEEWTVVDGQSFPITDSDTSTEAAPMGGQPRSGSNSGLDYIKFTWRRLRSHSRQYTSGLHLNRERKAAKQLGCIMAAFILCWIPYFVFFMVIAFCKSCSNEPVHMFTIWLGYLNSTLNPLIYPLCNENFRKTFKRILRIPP

Compound | Kb [1] | pA2 [2] | Kb [3] | TYPE OF ANTAGONIST EXERTED [4] | mechanism and intensity of action compared with Tiemonium and papaverine [4] | pD'2 [1] | pD'2 [2] | pD'2 [5] | pA2 [1] | pA2 [3]
C[N+]1(C)CCOC(CC(O)(c2ccccc2)c2ccccc2)C1 (centres unmarked) [Compound 2] | 6.31 µM | 4.90 | 0.2 µM | Competitive | great similarity of mechanism and intensity of action between compound no 2 and Tiemonium | – | – | – | – | –
C[N+]1(C)CCOC(CC(O)(c2ccc(F)cc2)c2ccc(F)cc2)C1 (centres unmarked) [Compound 7] | 10 µM | 5.87 | 3.47 µM | Dualist | a mechanism of action which brings into play at the same time the competitive mechanism of Tiemonium and the non-competitive mechanism of papaverine | 3.70 | 4.04 | 3.21 | – | –
COc1ccc(Cc2nccc3cc(OC)c(OC)cc23)cc1OC [Papaverine, papaverine, reference compound] | – | – | – | – | – | 4.98 | 4.78 | 5.03 | – | –
Tiemonium [reference compound] | – | 4.95 | – | Competitive | – | – | – | – | 5.21 | 7
